US11672775B2, “Treprostinil prodrugs” (United Therapeutics Corporation, priority 2016, dated 2023)

Tests used:
[1] = test system: rat; assay: Rat intraplantar injection model, mean clinical score (Example 11); settings: each of 15 min and 90 min
Description: FIG. 31 presents mean clinical score of cycle 1 (points). Increased/Higher score indicates more observations of adverse events.
FIG. 32 presents mean clinical score of cycle 2 (points). Increased/Higher score indicates more observations of adverse events.
FIGS. 31 and 32 present mean clinical score for Cycles 1 and 2 respectively.

[2] = test system: Sprague Dawley rats; assay: Rat intraplantar injection model, von Frey test (Example 10); type: in vivo, Sprague Dawley rat; settings: 1 μg/mL or 100 μg/mL; 15 and 90 minutes post-injection
Method: (§1) Male Sprague Dawley rats (n=56) were allocated into 7 groups of 8 animals per group. […] Each group was compared to the phosphate buffer (50-mM phosphate buffer with 50-mM sodium chloride at pH=7.4) treated group, which served as the control (Group 1).
(§2) Animals were administered 0.1 mL of test material by subcutaneous injection into the paw pad (Intraplantar injection) at time zero. Then, the animals were subsequently evaluated for their response to mechanical (von Frey filaments) and thermal stimuli, 15 and 90 minutes post-injection. The von Frey test was conducted prior to the thermal test, which followed immediately within minutes for each animal. In addition, clinical observation scoring of the animal's reaction to injection was conducted.
Mechanical pain sensitivity was tested using the von Frey test, which measures the withdrawal force threshold of the animals. The lower the force applied represents a greater sensitivity to the stimulus. The von Frey test was performed 15 and 90 minutes post-test item injection.

[3] = target: T1, EP2 receptor (Homo sapiens, UniProt P43116); assay: cAMP assay (HTRF cAMP HiRange Kit), agonist mode, Example 4; type: cell-based; settings: Table 2; HEK293T cells; read-out: Receptor activity EC50, EP receptor
T1 construct: expressed in transfected cells
Method: Materials. […] Cyclic AMP assay kit: HTRF cAMP HiRange Kit (CisBio, Cat #62AM6PEC). Cyclic AMP (cAMP) Assay: cAMP assays were performed according to the manufacturer's protocol using CisBio's HTRF cAMP HiRange Kit. […] The reaction was terminated by sequentially adding D2-labeled cAMP and cryptate-labeled anti-cAMP antibody in lysis buffer. […] Data in graphs are represented in Mean±SD. Dose-dependent responses were fitted with sigmoidal dose-response curves allowing variable slopes using GraphPad Prism versions 4, 5 or 6 (Graphpad Prism).

[4] = test system: Sprague Dawley rats; assay: Rat intraplantar injection model, von Frey test (Example 9); type: in vivo, Sprague Dawley rat; settings: 1 μg/mL or 100 μg/mL; 15 and 90 minutes post-injection
Method: (§3) Male Sprague Dawley rats (n=112) were allocated into 14 groups of 8/group. The study was run in 2 cycles, on consecutive days, 7 groups per cycle. Each cycle was composed of a Saline group, PBS group, which served as the control, and also treprostinil at a dose of 100 μg/mL or 1 μg/mL.
as §2, with “Animals” for “Then, the animals”, “conducted. FIG. 16 schematically illustrates the study design.” for “conducted.”
Mechanical pain sensitivity was tested using the von Frey test, which measures the withdrawal force threshold of the animals. The lower the force applied represents a greater sensitivity to the stimulus. The von Frey test was performed 15 and 90 minutes post-Test Item injection.

[5] = test system: Sprague Dawley rats; assay: Rat intraplantar injection model, clinical observation score (Example 10); type: in vivo, Sprague Dawley rat
Method: as §1, §2
A clinical observation score was assigned by assessing for redness, swelling and paw placement.

[6] = test system: Sprague Dawley rats; assay: Rat intraplantar injection model, thermal pain sensitivity (Example 10); type: in vivo, Sprague Dawley rat
Method: as §1, §2
(§4) The sensitivity of animals to a thermal pain stimulus was assessed immediately following the von Frey test. The time until withdrawal of the right-injected leg from a heat source was measured, and the lower (faster) the time of response represents a greater sensitivity to the stimulus. The test was performed 15 and 90 minutes post-test item injection.

[7] = test system: Sprague Dawley rats; assay: Rat intraplantar injection model, thermal pain sensitivity (Example 9); type: in vivo, Sprague Dawley rat; settings: 1 μg/mL or 100 μg/mL; 15 minutes post-administration
Method: as §3
as §2, with “Animals” for “Then, the animals”, “conducted. FIG. 16 schematically illustrates the study design.” for “conducted.”
as §4, with “post-Test Item” for “post-test item”

[8] = test system: Sprague Dawley rats; assay: Rat intraplantar injection model, clinical observation score (Example 9); type: in vivo, Sprague Dawley rat
Method: as §3
as §2, with “Animals” for “Then, the animals”, “conducted. FIG. 16 schematically illustrates the study design.” for “conducted.”
A Clinical observation score was assigned by assessing for redness, swelling and paw placement.

[9] = test system: Sprague Dawley rats; assay: Cardiovascular assessment by radiotelemetry following subcutaneous injection (Example 12); type: in vivo, Sprague Dawley rat
Method: (§5) Clinical observations were performed at approximately 6 hours prior to dosing, at the completion of dosing and at approximately 4 hours postdosing.

[10] = test system: Sprague Dawley rats; assay: Clinical observations following subcutaneous injection (Example 12); type: in vivo, Sprague Dawley rat; settings: 0.1 and 0.3 mg/kg SC; some animals; approximately 4 hours postdosing
Method: as §5

[11] = 0.1 mg/kg SC (first statement as printed)

T1 sequence (P43116 whole entry): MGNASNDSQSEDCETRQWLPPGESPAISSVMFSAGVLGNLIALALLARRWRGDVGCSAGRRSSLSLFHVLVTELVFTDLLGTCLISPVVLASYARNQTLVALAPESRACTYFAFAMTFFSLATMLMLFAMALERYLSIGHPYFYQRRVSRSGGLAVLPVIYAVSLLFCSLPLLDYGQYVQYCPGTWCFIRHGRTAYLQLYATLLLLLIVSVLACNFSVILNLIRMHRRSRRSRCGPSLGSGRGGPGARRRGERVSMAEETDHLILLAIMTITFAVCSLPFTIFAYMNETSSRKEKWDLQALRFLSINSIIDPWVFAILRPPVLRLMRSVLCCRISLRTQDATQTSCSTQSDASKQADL

Compound: CCCCC[C@H](O)CC[C@@H]1[C@H]2Cc3cccc(OCC(=O)O)c3C[C@H]2C[C@H]1O [Treprostinil]
- mean clinical score of cycle 2 ([1]; 1 μg/mL): non-zero
- mean clinical score of cycle 1 ([1]; 100 μg/mL): non-zero
- von Frey withdrawal force threshold vs phosphate buffer group [2]: reduced withdrawal force threshold
- EC50 [3]: 6.75 nM
- von Frey withdrawal force threshold vs PBS-treated group [4]: reduced withdrawal force threshold
- mean clinical score ([5]; 100 μg/mL, each of 15 min and 90 min): non-zero
- clinical score vs phosphate buffer treated group (statistically significant increase) ([5]; both doses, 90 minutes): same effect
- thermal paw withdrawal time vs phosphate buffer treated group ([6]; 1 μg/mL or 100 μg/mL, 15 minutes post-administration): statistically significantly faster paw withdrawal time
- sensitivity to heat stimulation vs vehicle (phosphate buffer) group ([6]; 100 μg/mL, 90 minutes post-injection): statistically significantly increased sensitivity
- thermal paw withdrawal time vs PBS treated group [7]: statistically significantly faster paw withdrawal time
- clinical score ([8]; 1 μg/mL (cycle 2), both time points (15 and 90 min)): non-zero
- clinical score vs PBS treated group ([8]; 1 μg/mL or 100 μg/mL, 15 and 90 minutes post-injection): statistically significant increase in the clinical score
- clinical score ([8]; 100 μg/mL (cycle 1), 15 min): non-zero
- clinical score vs PBS group ([8]; 100 μg/mL (cycle 1), 90 minutes post-injection): non-zero
- body temperature change ([9]; 0.000125 mg/kg or 0.00125 mg/kg SC): No significant changes
- diastolic blood pressure change ([9]; 0.03 mg/kg SC): marginally lower
- mean blood pressure change ([9]; 0.03 mg/kg SC): marginally lower
- mean blood pressure, time of nadir ([9]; 0.03 mg/kg SC): 30 min
- systolic blood pressure change ([9]; 0.03 mg/kg SC): marginally lower
- body temperature changes resolved by ([9]; 0.1 mg/kg SC): approximately 3 hours
- diastolic blood pressure lowering persisted through ([9]; 0.1 mg/kg SC): 90 min
- diastolic blood pressure, time of nadir ([9]; 0.1 mg/kg SC): 30 min
- mean blood pressure lowering persisted through ([9]; 0.1 mg/kg SC): 90 min
- mean blood pressure, time of nadir ([9]; 0.1 mg/kg SC): 30 min
- systolic blood pressure lowering persisted through ([9]; 0.1 mg/kg SC): 90 min
- systolic blood pressure, time of nadir ([9]; 0.1 mg/kg SC): 30 min
- body temperature change [9, 11]: Marginally lower
- body temperature change persisted through [9, 11]: approximately 3 hours
- body temperature changes resolved by ([9]; 0.3 mg/kg SC): ~4 h
- diastolic blood pressure lowering persisted through ([9]; 0.3 mg/kg SC): 180 min
- diastolic blood pressure, time of nadir ([9]; 0.3 mg/kg SC): 20 min
- mean blood pressure lowering persisted through ([9]; 0.3 mg/kg SC): 180 min
- mean blood pressure, time of nadir ([9]; 0.3 mg/kg SC): 20 min
- systolic blood pressure lowering persisted through ([9]; 0.3 mg/kg SC): 120 min
- systolic blood pressure, time of nadir ([9]; 0.3 mg/kg SC): 20 min
- pulse pressure change ([9]; 0.3 mg/kg SC, from 20 to 40 minutes postdosing): Marginally lower
- body temperature change ([9]; 0.1 and 0.3 mg/kg SC): Significantly lowered
- diastolic blood pressure change ([9]; 0.1 and 0.3 mg/kg SC): Significantly lower
- diastolic blood pressure, earliest time point of lowering ([9]; 0.1 and 0.3 mg/kg SC): 10 min
- mean blood pressure change ([9]; 0.1 and 0.3 mg/kg SC): Significantly lower
- mean blood pressure, earliest time point of lowering ([9]; 0.1 and 0.3 mg/kg SC): 10 min
- systolic blood pressure change ([9]; 0.1 and 0.3 mg/kg SC): Significantly lower
- systolic blood pressure, earliest time point of lowering ([9]; 0.1 and 0.3 mg/kg SC): 10 min
- dose resulting in significantly lower body temperature ([9]; single SC injection): ≥ 0.030 mg/kg
- dose resulting in significantly lower systolic, diastolic, mean arterial blood pressure ([9]; single SC injection): ≥ 0.1 mg/kg
- heart rate change ([9]; single SC injection, all doses): Higher heart rates
- time by which heart rate changes resolved / recovered postdosing ([9]; single SC injection, all groups): approximately 5 hours
- diastolic blood pressure change ([9]; ≤0.030 mg/kg SC): No meaningful changes
- mean blood pressure change ([9]; ≤0.030 mg/kg SC): No meaningful changes
- systolic blood pressure change ([9]; ≤0.030 mg/kg SC): No meaningful changes
- clinical observations [10]: flushed extremities
